Among the data in ChEMBL document CHEMBL1909046, “DrugMatrix in vitro pharmacology data” are IC50 and Ki values, retold here.

Usually IC50 stands for the concentration that gives 50% inhibition. By Ki is commonly meant a measure of affinity in units of concentration, obtained from inhibition or displacement.

Experiment [1] concerns the target T1, Alpha-2A adrenergic receptor (Homo sapiens, UniProt P08913). Also: in other assays of this panel Not Active means under 50% inhibition at 10 µM.
T1 sequence (P08913 whole entry): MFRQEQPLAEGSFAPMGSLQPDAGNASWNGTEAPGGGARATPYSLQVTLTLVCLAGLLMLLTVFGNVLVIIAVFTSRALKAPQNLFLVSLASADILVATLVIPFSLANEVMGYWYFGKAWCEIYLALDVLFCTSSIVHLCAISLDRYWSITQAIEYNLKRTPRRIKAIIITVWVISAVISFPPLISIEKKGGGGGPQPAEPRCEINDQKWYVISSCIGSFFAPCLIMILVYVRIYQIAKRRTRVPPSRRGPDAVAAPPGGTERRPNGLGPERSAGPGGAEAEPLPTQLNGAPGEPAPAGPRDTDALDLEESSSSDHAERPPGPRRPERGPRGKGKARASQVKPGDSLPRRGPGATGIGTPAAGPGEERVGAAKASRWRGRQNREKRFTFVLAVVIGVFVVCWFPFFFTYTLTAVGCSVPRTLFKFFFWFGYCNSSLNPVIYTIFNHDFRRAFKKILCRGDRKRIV
The class given is cell membranes, Sf9, Membrane.

Experiment [2] deals with Substance-P receptor (Homo sapiens, UniProt P25103). Format: cell membranes, CHO, Membrane. The settings on record: cho.
Chain of Substance-P receptor (P25103 whole entry): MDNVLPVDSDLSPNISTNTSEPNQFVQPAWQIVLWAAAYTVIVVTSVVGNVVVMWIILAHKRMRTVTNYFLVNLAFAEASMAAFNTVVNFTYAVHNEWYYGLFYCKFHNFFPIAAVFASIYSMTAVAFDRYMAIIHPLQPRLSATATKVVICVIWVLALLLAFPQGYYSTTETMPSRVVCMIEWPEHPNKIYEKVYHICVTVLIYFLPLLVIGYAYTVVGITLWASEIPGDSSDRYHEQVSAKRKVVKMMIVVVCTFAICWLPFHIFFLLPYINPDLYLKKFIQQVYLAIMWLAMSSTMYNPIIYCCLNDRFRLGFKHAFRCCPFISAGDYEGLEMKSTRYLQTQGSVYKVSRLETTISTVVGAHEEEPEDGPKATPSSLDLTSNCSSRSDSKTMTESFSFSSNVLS
The target in experiment [3] is T2, Endothelin-1 receptor (Homo sapiens, UniProt P25101). Also: in other assays of this panel Not Active means under 50% inhibition at 10 µM.
T2 sequence (P25101 whole entry): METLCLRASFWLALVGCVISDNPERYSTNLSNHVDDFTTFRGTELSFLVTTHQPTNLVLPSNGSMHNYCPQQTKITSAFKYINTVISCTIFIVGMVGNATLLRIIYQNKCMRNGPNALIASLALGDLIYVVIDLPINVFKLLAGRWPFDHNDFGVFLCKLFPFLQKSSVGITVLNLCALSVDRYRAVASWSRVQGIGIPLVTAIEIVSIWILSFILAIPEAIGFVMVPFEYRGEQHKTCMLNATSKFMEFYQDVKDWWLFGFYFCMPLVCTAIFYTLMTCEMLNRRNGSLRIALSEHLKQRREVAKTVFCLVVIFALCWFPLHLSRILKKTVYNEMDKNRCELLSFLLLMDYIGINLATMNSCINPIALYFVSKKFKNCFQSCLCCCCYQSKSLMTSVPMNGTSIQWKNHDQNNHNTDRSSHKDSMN
Format: cell membranes, Membrane. The settings on record: cho-k1.

The target in experiment [4] is T3, Muscarinic acetylcholine receptor M5 (Homo sapiens, UniProt P08912). Also: in other assays of this panel Not Active means under 50% inhibition at 10 µM.
T3 sequence (P08912 whole entry): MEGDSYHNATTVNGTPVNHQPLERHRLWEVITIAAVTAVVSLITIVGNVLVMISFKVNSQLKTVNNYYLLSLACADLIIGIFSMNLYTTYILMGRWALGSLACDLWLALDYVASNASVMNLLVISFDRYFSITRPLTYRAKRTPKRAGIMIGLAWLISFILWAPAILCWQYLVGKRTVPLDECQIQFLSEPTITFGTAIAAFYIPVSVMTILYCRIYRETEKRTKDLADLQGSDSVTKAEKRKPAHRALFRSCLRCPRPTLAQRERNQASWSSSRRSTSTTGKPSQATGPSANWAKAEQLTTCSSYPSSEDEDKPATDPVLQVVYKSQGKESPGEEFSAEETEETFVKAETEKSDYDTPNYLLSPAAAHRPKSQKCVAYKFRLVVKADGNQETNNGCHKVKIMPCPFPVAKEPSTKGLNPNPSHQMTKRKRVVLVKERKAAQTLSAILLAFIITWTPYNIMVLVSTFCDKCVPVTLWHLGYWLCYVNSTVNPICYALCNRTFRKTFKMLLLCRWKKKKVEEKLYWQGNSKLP
Format: cell membranes, CHO-K1, Membrane. The settings on record: cho-k1.

Experiment [5] has as its target Nitric oxide synthase 1 (Rattus norvegicus, UniProt P29476). Format: tissue-based, Cerebellum. Also: in other assays of this panel Not Active means under 50% inhibition at 10 µM.
In experiment [6] the target is Acetylcholinesterase (Homo sapiens, UniProt P22303). Briefly: DRUGMATRIX: Acetylcholinesterase enzyme inhibition (substrate: acetylthiocholine). The class given is cell-based, HEK293. The settings on record: hek293; Not Active = under 50% inhibition at 10 µM.
Chain of Acetylcholinesterase (P22303 whole entry): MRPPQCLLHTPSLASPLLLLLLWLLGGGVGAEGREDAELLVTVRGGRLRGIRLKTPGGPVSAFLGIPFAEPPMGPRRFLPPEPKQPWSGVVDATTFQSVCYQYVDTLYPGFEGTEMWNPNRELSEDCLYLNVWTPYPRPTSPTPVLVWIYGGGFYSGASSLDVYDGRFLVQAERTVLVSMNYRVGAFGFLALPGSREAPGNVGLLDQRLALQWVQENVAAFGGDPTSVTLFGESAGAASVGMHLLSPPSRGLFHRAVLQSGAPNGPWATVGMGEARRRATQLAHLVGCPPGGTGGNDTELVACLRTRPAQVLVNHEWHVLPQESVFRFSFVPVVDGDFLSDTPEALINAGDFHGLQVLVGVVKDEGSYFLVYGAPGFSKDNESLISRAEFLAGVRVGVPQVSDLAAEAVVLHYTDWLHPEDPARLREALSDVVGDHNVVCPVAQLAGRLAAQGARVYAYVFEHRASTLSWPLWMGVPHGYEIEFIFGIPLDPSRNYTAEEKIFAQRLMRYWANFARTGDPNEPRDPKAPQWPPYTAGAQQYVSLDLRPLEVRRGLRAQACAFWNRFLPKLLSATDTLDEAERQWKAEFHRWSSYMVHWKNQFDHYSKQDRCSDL

Chain of Nitric oxide synthase 1 (P29476 whole entry): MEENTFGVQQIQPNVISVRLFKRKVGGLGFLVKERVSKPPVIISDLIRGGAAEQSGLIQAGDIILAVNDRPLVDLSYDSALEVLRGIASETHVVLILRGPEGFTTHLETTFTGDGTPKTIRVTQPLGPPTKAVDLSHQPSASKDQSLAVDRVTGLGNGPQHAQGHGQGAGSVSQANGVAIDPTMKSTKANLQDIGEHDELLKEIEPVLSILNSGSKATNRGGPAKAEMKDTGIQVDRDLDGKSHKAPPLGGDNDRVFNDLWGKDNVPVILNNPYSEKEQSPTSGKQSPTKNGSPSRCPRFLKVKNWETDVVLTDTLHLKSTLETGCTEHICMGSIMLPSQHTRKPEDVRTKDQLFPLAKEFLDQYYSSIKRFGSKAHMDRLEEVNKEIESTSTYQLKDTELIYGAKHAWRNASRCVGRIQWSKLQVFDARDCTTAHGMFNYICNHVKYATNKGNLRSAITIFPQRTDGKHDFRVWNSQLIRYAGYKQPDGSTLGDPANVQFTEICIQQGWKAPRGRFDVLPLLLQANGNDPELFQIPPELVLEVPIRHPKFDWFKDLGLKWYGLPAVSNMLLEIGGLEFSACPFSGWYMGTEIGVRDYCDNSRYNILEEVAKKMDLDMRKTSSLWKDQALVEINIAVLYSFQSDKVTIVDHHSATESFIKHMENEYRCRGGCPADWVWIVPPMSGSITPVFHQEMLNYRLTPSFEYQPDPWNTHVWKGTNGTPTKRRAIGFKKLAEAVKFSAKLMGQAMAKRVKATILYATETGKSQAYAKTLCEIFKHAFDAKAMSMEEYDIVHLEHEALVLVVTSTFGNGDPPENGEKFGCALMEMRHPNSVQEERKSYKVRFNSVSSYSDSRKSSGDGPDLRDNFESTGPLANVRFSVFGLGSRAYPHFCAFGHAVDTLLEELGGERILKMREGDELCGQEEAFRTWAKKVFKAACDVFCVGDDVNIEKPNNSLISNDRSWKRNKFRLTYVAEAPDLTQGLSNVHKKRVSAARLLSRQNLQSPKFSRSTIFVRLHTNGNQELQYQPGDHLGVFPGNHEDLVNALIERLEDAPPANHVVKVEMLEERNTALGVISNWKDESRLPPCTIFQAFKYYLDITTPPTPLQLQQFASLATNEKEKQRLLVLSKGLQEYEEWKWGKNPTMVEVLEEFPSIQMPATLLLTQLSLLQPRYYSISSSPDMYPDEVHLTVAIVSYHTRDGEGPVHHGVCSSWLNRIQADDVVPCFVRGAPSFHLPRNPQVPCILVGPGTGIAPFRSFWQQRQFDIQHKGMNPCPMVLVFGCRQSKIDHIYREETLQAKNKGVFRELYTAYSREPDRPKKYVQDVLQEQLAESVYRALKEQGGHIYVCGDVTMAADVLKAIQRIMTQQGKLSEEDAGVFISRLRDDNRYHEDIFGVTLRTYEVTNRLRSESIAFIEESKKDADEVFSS

On to `COc1ccc(C2C(=O)c3ccccc3C2=O)cc1` [ANISINDIONE], for which the IC50 entry in experiment [1] (sf9), in experiment [2], in experiment [3], in experiment [4], in experiment [5] and in experiment [6] was “Not Active” throughout.
In the case of `CC[C@H](C)[C@H]1O[C@]2(C=C[C@@H]1C)C[C@@H]1C[C@@H](C/C=C(\C)[C@@H](O[C@H]3C[C@H](OC)[C@@H](O[C@H]4C[C@H](OC)[C@@H](O)[C@H](C)O4)[C@H](C)O3)[C@@H](C)/C=C/C=C3\CO[C@@H]4[C@H](O)C(C)=C[C@@H](C(=O)O1)[C@]34O)O2.CO[C@H]1C[C@H](O[C@H]2[C@H](C)O[C@@H](O[C@@H]3/C(C)=C/C[C@@H]4C[C@@H](C[C@]5(C=C[C@H](C)[C@@H](C(C)C)O5)O4)OC(=O)[C@@H]4C=C(C)[C@@H](O)[C@H]5OC/C(=C\C=C\[C@@H]3C)[C@]54O)C[C@@H]2OC)O[C@@H](C)[C@@H]1O` [ABAMECTIN], the IC50 entry in experiment [1] (sf9), in experiment [2], in experiment [3], in experiment [4], in experiment [5] and in experiment [6] was “Not Active” each time.
For `CN/C(=N\CCSCc1nc[nH]c1C)NC#N` [CIMETIDINE], the IC50 entry in experiment [1] (sf9), in experiment [2], in experiment [3], in experiment [4], in experiment [5] and in experiment [6] was “Not Active” throughout.
Consider NYSTATIN, for which the IC50 result in experiment [1] (sf9), in experiment [2], in experiment [3], in experiment [4], in experiment [5] and in experiment [6] was “Not Active” each time. Further, the Ki entry in experiment [1] (sf9), in experiment [2], in experiment [3], in experiment [4], in experiment [5] and in experiment [6] was “Not Active” in each case.
For the compound `CCCNCC(O)COc1ccccc1C(=O)CCc1ccccc1` (configuration not stated) [PROPAFENONE], the IC50 entry in experiment [1] (sf9), in experiment [2], in experiment [3], in experiment [4], in experiment [5] and in experiment [6] was “Not Active” in each case.
Consider `COC(=O)Nc1nc2ccc([S+]([O-])c3ccccc3)cc2[nH]1` (configuration not stated) [OXFENDAZOLE], for which the IC50 result in experiment [1] (sf9), in experiment [2], in experiment [3], in experiment [4], in experiment [5] and in experiment [6] was “Not Active” each time.
Take `CCC1(C)CC(=O)NC1=O` (configuration not stated) [ETHOSUXIMIDE]: the IC50 result in experiment [1] (sf9), in experiment [2], in experiment [3], in experiment [4], in experiment [5] and in experiment [6] was “Not Active” throughout.
As to `Brc1c(NC2=NCCN2)ccc2nccnc12` [BRIMONIDINE], the IC50 result in experiment [2], in experiment [3], in experiment [4], in experiment [5] and in experiment [6] was “Not Active” each time.
For the compound `CC[C@H]1CN2CCc3cc(OC)c(OC)cc3[C@@H]2C[C@@H]1C[C@H]1NCCc2cc(OC)c(OC)cc21` [EMETINE], the IC50 was 38 nM in experiment [1] (read-out: IC50); “Not Active” in experiment [2]; “Not Active” in experiment [3]; “Not Active” in experiment [4]; “Not Active” in experiment [5]; “Not Active” in experiment [6]. Moreover, the Ki in experiment [1] (read-out: Ki) amounted to 14 nM.
With `COc1cc([C@@H]2c3cc4c(cc3[C@@H](O[C@@H]3O[C@@H]5CO[C@@H](C)O[C@H]5[C@H](O)[C@H]3O)[C@H]3COC(=O)[C@H]23)OCO4)cc(OC)c1O` [ETOPOSIDE], the IC50 entry in experiment [1] (sf9), in experiment [2], in experiment [3], in experiment [4], in experiment [5] and in experiment [6] was “Not Active” throughout.
As for `COC(=O)CCc1ccc(OCC(O)CNC(C)C)cc1` (configuration not stated) [ESMOLOL], the IC50 entry in experiment [1] (sf9), in experiment [2], in experiment [3], in experiment [4], in experiment [5] and in experiment [6] was “Not Active” each time.
As for `COc1ccc(C(=O)N2CCCC2=O)cc1`, the IC50 entry in experiment [1] (sf9), in experiment [2], in experiment [3], in experiment [4], in experiment [5] and in experiment [6] was “Not Active” throughout.
As for `O=C(O)CCNC(=O)c1ccccc1` [BETAMIPRON], the IC50 entry in experiment [1] (sf9), in experiment [2], in experiment [3], in experiment [4], in experiment [5] and in experiment [6] was “Not Active” each time.
Turning to `O=c1cnn([C@@H]2O[C@H](CO)[C@@H](O)[C@H]2O)c(=O)[nH]1` [6-AZAURIDINE], the IC50 entry in experiment [1] (sf9), in experiment [2], in experiment [3], in experiment [4], in experiment [5] and in experiment [6] was “Not Active” in each case.
As to `Cc1c(OCC(F)(F)F)ccnc1C[S+]([O-])c1nc2ccccc2[nH]1` (configuration not stated) [LANSOPRAZOLE], the IC50 result in experiment [1] (sf9), in experiment [2], in experiment [3], in experiment [4], in experiment [5] and in experiment [6] was “Not Active” in each case.
Turning to `COc1cc(N)c(Cl)cc1C(=O)NC1CCN(CCCOc2ccc(F)cc2)CC1OC` (configuration not stated) [CISAPRIDE], the IC50 result in experiment [2], in experiment [3], in experiment [4], in experiment [5] and in experiment [6] was “Not Active” in each case.
Regarding `N=C(N)NC(=O)Cc1c(Cl)cccc1Cl` [GUANFACINE], the IC50 entry in experiment [2], in experiment [3], in experiment [4], in experiment [5] and in experiment [6] was “Not Active” throughout.
Take `COc1cc2nc(N3CCN(C(=O)c4ccco4)CC3)nc(N)c2cc1OC` [PRAZOSIN]: the IC50 entry in experiment [2], in experiment [3], in experiment [4], in experiment [5] and in experiment [6] was “Not Active” each time.
`COc1ccc2c3c1O[C@H]1C[C@@H](O)C=C[C@@]31CCN(C)C2` [GALANTAMINE]: the IC50 entry in experiment [1] (sf9), in experiment [2], in experiment [3], in experiment [4] and in experiment [5] was “Not Active” in each case.
In the case of `COc1ccc2cc3[n+](cc2c1OC)CCc1cc2c(cc1-3)OCO2.[Cl-]` [BERBERINE CHLORIDE], the IC50 entry in experiment [1] (sf9), in experiment [2], in experiment [3], in experiment [4] and in experiment [5] was “Not Active” each time.
For `Oc1c(Cl)cc(Cl)c(Cl)c1Cc1c(O)c(Cl)cc(Cl)c1Cl` [HEXACHLOROPHENE], the IC50 is 5500 nM in experiment [1] (read-out: IC50); “Not Active” in experiment [2]; “Not Active” in experiment [3]; “Not Active” in experiment [4]; “Not Active” in experiment [5]. The Ki in experiment [1] (read-out: Ki) came to 2060 nM.
Regarding `CN1[C@@H]2CC[C@H]1C[C@@H](OC(=O)C(CO)c1ccccc1)C2` (some centres not stated) [ATROPINE], the IC50 entry in experiment [1] (sf9), in experiment [2], in experiment [3], in experiment [5] and in experiment [6] was “Not Active” each time.
